These results are taken from patent EP4768489A1, “CYCLOBUTYL-CONTAINING COMPOUNDS” (Chia Tai Tianqing Pharmaceutical Group Co., Ltd., priority 2023, dated 2025).

Broadly, the IC50 is the concentration needed to halve the response being measured. High values mean weaker potency in that assay, low ones greater potency in that assay. In general, Dmax refers to the largest share of the target that was removed. A high value points to deep degradation.

Where only a bound is given, the exact number is not on record here.

One data set relates to LNCaP (T878A) cells. As to the kind of experiment: cells. Particulars: Homo sapiens, 168 h.
A short description of data set [1]: In vitro liver microsome stability, human. It counts as in vitro ADME. The conditions noted are these: human liver microsomes 0.5 mg/mL, 37 °C, NADPH. The procedure:
(§1) Liver microsome incubation samples were prepared by mixing a PBS buffer (pH 7.4), a liver microsome solution (0.5 mg/mL), a test compound, and an NADPH + MgCl2 solution, followed by incubation at 37 °C and 300 rpm for 1 h. Zero-hour samples were prepared by mixing a PBS buffer (pH 7.4), a liver microsome solution (0.5 mg/mL), and a test compound. […]
For orientation: Microsomes from liver hold many membrane-bound enzymes, among them those of drug oxidation.

In a further data set the test system is VCaP cells. Nature of the data set: Assay on inhibitory activity for VCaP cell proliferation (CCK-8). It is filed as cell-based. The conditions noted are these: Homo sapiens, 168 h.
Data set [2] can be described thus: In vitro liver microsome stability, mouse. It is filed as in vitro ADME. Particulars: mouse liver microsomes 0.5 mg/mL, 37 °C, NADPH. The method, then:
as §1

The target in data set [3] is T1, AR in LNCaP (T878A) cells (Homo sapiens, UniProt P10275, T878A).
T1 construct: Assay on degradation activity for AR in LNCaP (T878A) cells; endogenous in cells; host or cells: LNCaP cells
T1 sequence (P10275 1-920 T878A): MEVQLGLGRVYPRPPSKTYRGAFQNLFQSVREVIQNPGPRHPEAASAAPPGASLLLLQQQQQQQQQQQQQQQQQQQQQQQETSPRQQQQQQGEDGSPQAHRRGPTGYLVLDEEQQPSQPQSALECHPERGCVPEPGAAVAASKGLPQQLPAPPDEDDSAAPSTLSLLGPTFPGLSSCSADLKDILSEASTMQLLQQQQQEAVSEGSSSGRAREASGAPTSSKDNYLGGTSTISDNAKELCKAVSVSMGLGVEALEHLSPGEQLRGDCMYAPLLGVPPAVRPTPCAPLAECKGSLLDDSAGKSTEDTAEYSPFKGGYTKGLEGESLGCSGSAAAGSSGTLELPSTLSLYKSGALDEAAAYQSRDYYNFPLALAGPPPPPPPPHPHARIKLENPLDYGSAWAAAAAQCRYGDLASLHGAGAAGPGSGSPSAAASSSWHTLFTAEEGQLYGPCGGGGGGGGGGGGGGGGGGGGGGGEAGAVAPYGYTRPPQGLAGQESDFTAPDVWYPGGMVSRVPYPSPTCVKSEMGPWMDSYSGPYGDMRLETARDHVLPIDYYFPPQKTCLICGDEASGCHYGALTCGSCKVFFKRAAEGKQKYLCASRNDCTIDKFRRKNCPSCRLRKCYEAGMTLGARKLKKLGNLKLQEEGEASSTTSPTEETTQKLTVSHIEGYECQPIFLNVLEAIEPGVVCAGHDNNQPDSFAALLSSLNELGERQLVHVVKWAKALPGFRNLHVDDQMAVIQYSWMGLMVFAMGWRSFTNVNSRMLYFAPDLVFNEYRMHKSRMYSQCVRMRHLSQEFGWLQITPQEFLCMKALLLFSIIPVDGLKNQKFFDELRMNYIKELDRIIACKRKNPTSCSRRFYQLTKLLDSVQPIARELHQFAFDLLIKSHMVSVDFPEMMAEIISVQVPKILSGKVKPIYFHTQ
As to the kind of experiment: Assay on degradation activity for AR in LNCaP (T878A) cells (HTRF). It counts as cell-based. The conditions noted are these: maximum degradation rate, 24 h. The procedure:
The detection was carried out using the HTRF HUMAN ANDROGEN RECEPTOR DETECTION KIT (cisbio, 64ANDRPEG), 4× Supplemented Lysis buffer was prepared using the Blocking reagent stock solution (100×) and Lysis buffer stock solution (4×), and 1× Supplemented Lysis buffer was prepared using the 4× Supplemented Lysis buffer and ddH2O. Premixed antibody solutions were prepared using Detection buffer, Androgen Receptor Eu Cryptate antibody, and Androgen Receptor d2 antibody.
The cells were cultured overnight in a cell incubator. […] After the cells were oscillated for 40 min at room temperature, 16 µL of the cell lysis buffer was added to a 384-well plate, the Premixed antibody solutions were added at 4 µL/well, and the mixture was left to stand at 25 °C for 2 h. […] Table 2. Degradation activity of compounds for AR in LNCaP (T878A) cells
For orientation: Time-resolved FRET reads energy transfer from a long-lived donor to a nearby acceptor.

For the compound `COc1cc(O[C@H]2C(C)(C)[C@H](NC(=O)c3ccc(N4CCC(CN5CCc6c(ccc7c(C8CCC(=O)NC8=O)noc67)C5)CC4)cn3)C2(C)C)ccc1C#N` (some centres unmarked) [Compound 2], the concentration for half-maximal inhibition (IC50) in the data set on LNCaP (T878A) cells was < 50 nM; in the data set with VCaP cells it was < 2000 nM. The “HLM (human) Remaining amount at 60 min %” value in data set [1] is listed as >70%. The “MLM (mouse) Remaining amount at 60 min %” value in data set [2] is recorded as >70%. Further, the Dmax in data set [3] is > 90%.
